Experimental data taken from US20190169218A1, “AMPHIPATHIC COMPOUND HAVING NOVEL PENTA-SACCHARIDE HYDROPHILIC GROUP AND USE THEREOF” (Industry-University Cooperation Foundation Hanyang …, priority 2016, published 2019).

Columns and labels:
[1] = system: T4L-β2AR-Gs or β2AR-Gs complexes; assay: purification and stability of T4L-β2AR-Gs or β2AR-Gs complexes (analytical gel filtration, negative staining EM); parameters: species or system human
Experimental: The ability of PSE-C11 or TPS-E10L to purify and stabilize T4L-β2AR-Gs or β2AR-Gs complexes was measured using electron microscopy (EM) analysis.
Specifically, measurement of the ability of PSE-C11 for TPS-E10L to purify and stabilize T4L-β2AR-Gs or β2AR-Gs complexes was performed as follows. 100 μM T4L-β2AR solubilized in 0.1 wt % DDM was mixed with 120 μM Gs heterotrimers for 30 minutes. 0.5 units of apyrase (NEB) and 2 mM MgCl2 were added to the mixture, followed by a 1-hour incubation to form complexes. 1 wt % PSE-C11 or TPS-E10L was respectively added to the mixture to achieve a final concentration of 0.8%, and incubated for 30 minutes to allow DDM to be exchanged with PSE-C11 or TPS-E10L. […] Finally, proteins were eluted with a 0.05% (100×CMC) PSE-C11 or TPS-E10L buffer. Gel filtration was performed using a running buffer (20 mM HEPES (pH 7.5), 100 mM NaCl, 0.005% PSE-C11 or TPS-E10L, 1 μM BI, 100 μM TCEP) to purify T4L-β2AR-Gs complexes. To measure the stability of β2AR-Gs complexes present in PSE-C11 or TPS-E10L, analytical gel filtration was performed with running buffers of the same formulation at 12 hours, 1 day, 3 days, 7 days, and 15 days. After a 15 day-incubation, analytical gel filtration was performed using an amphiphilic compound pre-buffer having the same formulation as above without PSE-C11 or TPS-E10L.
In addition, negative staining EM analysis for T4L-β2AR-Gs or β2AR-Gs complexes present in PSE-C11 was performed as follows. Samples containing T4L-β2AR-Gs or β2AR-Gs were prepared to perform electron microscopy analysis using a conventional negative staining protocol (see Peisley, A. et al., G Protein-Coupled Receptors in Drug Discovery: Methods and Protocols, Methods in Molecular Biology, 1335, 29-38 (2015)), and imaging was performed by operating a Tecnai T12 electron microscope at 120 kV at room temperature. Images were recorded with a Gatan US4000 CCD camera at a 71,138×magnification with a defocus value of ˜[…].

[2] = molecular target: T1, uric acid-xanthine/H+ symporter (UapA) (Emericella nidulans, UniProt Q07307, G411V); assay: thermal stability of UapA by CPM analysis; parameters: species or system Aspergillus nidulans; settings: CMC+0.04 wt % and CMC+0.2 wt %, 40° C., 120 minutes
T1 construct: GFP; made in house; host or cells: Saccharomyces cerevisiae FGY217
Experimental: The ability of TPSs (TPS-As, TPS-Es and TPS-ELs) to stabilize the structure of uric acid-xanthine/H+ symporter (UapA) isolated from Aspergillus nidulans was measured. The structural stability of UapA was evaluated using a sulfhydryl-specific fluorophore, N-[4-(7-diethylamino-4-methyl-3-coumarinyl)phenyl]maleimide (CPM).
Specifically, UapAG411V1-11 (hereinafter, referred to as ‘UapA’) was expressed in a Saccharomyces cerevisiae FGY217 strain as a GFP fusion protein, and was isolated using a sample buffer (20 mM Tris (pH 7.5), 150 mM NaCl, 0.03% DDM, 1 mM xanthine). The transporter was concentrated to about 10 mg/mL using a 100 kDa molecular weight cut-off filter (Millipore). The transporter was diluted with a CMC+0.04 wt % or CMC+0.2 wt % buffer at a ratio of 1:150 in a Greiner 96-well plate containing one of TPS-As (TPS-A6, TPS-A7 or TPS-A8), TPS-Es (TPS-E6, TPS-E7 or TPS-E8), TPS-ELs (TPS-E8L, TPS-E9L, TPS-E10L or TPS-E11L), MNG-3 or DDM (control group). […] During incubation, fluorescence emission intensity was monitored using a microplate spectrophotometer set at excitation and emission wavelengths of 387 and 463 nm, respectively. The maximum value of fluorescence intensity was used to calculate the relative percentage of folded transporters during the incubation period. […]

T1 sequence (Q07307 12-574 G411V): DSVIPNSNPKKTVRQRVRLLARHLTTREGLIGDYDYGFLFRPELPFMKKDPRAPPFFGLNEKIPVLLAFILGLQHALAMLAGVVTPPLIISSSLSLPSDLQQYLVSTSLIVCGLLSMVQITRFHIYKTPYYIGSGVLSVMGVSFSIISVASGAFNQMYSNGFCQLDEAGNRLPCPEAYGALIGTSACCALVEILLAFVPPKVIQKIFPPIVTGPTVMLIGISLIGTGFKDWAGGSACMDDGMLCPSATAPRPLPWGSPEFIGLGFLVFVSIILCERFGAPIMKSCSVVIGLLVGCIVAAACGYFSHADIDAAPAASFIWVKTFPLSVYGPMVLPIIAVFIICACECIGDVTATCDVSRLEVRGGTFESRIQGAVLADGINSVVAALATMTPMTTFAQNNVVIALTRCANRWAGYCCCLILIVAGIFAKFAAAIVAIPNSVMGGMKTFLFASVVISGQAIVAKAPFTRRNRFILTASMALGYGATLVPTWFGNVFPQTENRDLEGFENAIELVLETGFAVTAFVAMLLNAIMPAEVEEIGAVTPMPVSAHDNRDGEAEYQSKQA

Row | SMILES | stability of β2AR-Gs complexes (analytical gel filtration) ([1]; after incubation for 15 and 17 days) | stability of complexes ([1]; buffer without the amphipathic compound as eluent) | maintaining folding state of UapA (CPM) [2]
1 | CCCCCCCCCCCOCC(COCCCCCCCCCCC)O[C@@H]1OC(CO[C@@H]2OC(CO)[C@@H](O)C(O)C2O)[C@@H](O[C@@H]2OC(CO)[C@@H](O)C(O)C2O)C(O[C@@H]2OC(CO)[C@@H](O)C(O)C2O)C1O[C@@H]1OC(CO)[C@@H](O)C(O)C1O (stereo partly drawn) [PSE-C11] | no separation of the complexes was observed at all | completely stable | 
2 | CCCCCCCCOCC(COCCCCCCCC)(COCCCCCCCC)CO[C@@H]1OC(CO[C@@H]2OC(CO)[C@@H](O)C(O)C2O)[C@@H](O[C@@H]2OC(CO)[C@@H](O)C(O)C2O)C(O[C@@H]2OC(CO)[C@@H](O)C(O)C2O)C1O[C@@H]1OC(CO)[C@@H](O)C(O)C1O (stereo partly drawn) [TPS-E8] |  |  | the most excellent among TPS-As/Es
